{"source": "patent US10272110B2", "about": "“Methods for promoting HSC engraftment” (CHILDREN'S MEDICAL CENTER CORPORATION, priority 2006, dated 2019)", "key": {"[1]": {"system": "CFU-S from murine bone marrow cells", "assay": "Murine colony-forming units-spleen (CFU-S)", "assay_type": "in vivo, mouse", "description": "Two independent BM samples were treated (n=5/treatment×2 replicates) for each variable. Recipient mice were lethally irradiated with a split dose of 10 Gy. 6×10^4 unfractionated dmPGE2 or control-treated BM cells were injected retro-orbitally into irradiated recipient mice. Spleens were dissected on day eight or twelve, weighed and fixed with Bouin's solution; hematopoietic colonies per spleen were counted. 1×10^5 cells/recipient were transplanted after treatment with the cox inhibitors. FACS sorted ckit^+sca1^+lineage^− BM cells were treated as above and transplanted at a dose of either 100 cells/recipient or 300 cells/recipient."}, "repopulating HSCs": {"system": "repopulating HSCs", "assay": "Limiting dilution competitive transplantation", "assay_type": "in vivo, mouse", "description": "Zhang & Lodish, 103 Blood 2513-21 (2004). WBM (CD45.1) exposed to dmPGE2 ex vivo was mixed independently at varying doses with a fixed number of untreated competitor cells (CD45.1/CD45.2) and injected into congenic recipient mice (CD45.2). Peripheral blood was obtained at six, twelve, and twenty-four weeks post-transplantation and examined by FACS to determine the contribution of treated-test cells to hematopoietic repopulation (FIGS. 9E-9J). Positive reconstitution was defined as test cell multilineage chimerism >5% (FIGS. 9F, H, I). […] At six weeks, the calculated frequency of engrafting cells per 10^6 WBM cells was enhanced 3.3-fold (p=0.005) in the recipients of dmPGE2-treated WBM, and the frequency of short-term repopulating HSCs was 4-fold (p=0.002) higher at twelve weeks post-transplant (FIG. 8E, 8F, FIG. 9G). At twenty-four weeks, the frequency of long-term repopulating HSCs was 2.3-fold enhanced (p=0.05) in recipients of dmPGE2-treated cells (FIG. 8F, FIG. 9J). […] No decline in the contribution of dmPGE2-treated HSCs to hematopoiesis was observed.\nWBM from CD45.1 C57Bl/6 mice was incubated with dmPGE2 or EtOH control ex vivo as described. Treated-test cells were independently transplanted into irradiated CD45.2 recipients (n=5/variable×2) with untreated CD45.1/CD45.2 competitor at the following ratios: 15,000:200,000 (0.075:1), 50,000:200,000 (0.25:1), 200,000:200,000 (1:1), 2,000,000:200,000 (10:1). Peripheral blood (PB) was obtained at six, twelve, and twenty-four weeks post-transplantation, and white blood cells were FACS-analyzed to determine test reconstitution for each series of treatment populations. Frequency of PB chimerism >5% was used to calculate the number of repopulating cells using the L-Calc program (Stem Cell Technologies). For twelve-week and twenty-four-week PB samples, multilineage reconstitution was measured by FACS analysis as above."}, "[2]": {"system": "peripheral blood and bone marrow WBC", "assay": "5-Fluorouracil bone marrow injury", "assay_type": "in vivo, mouse", "description": "Mice were treated with 5-FU (150 mg/kg) as described. Venezia et al., 2004. […] Peripheral blood was obtained on day seven and day fourteen, quantified and subjected to multilineage FACS analysis using antibodies (eBioscience) to B220/IgM (B-lymphoid), CD4/8 (T-lymphoid), Mac1/Gr1 (myeloid), Ter119/CD71 (erythroid) and ckit/sca1 (stem/progenitor). Mice were sacrificed on day 16, and bone marrow was isolated, quantified and analyzed by FACS."}, "runx1/cmyb+ AGM HSCs": {"system": "runx1/cmyb+ AGM HSCs", "assay": "Heat shock wnt-pathway transgenic embryos treated with PG drugs: AGM HSC formation", "assay_type": "in vivo, zebrafish", "description": "More specifically, Wnt signaling through its main transcriptional mediator β-catenin plays an important role in controlling tissue patterning, cell fate decisions, and proliferation in many embryonic contexts, including the development and differentiation of organs. […] Whether wnt signaling has a role during HSC formation in zebrafish was determined using heat shock inducible activators and repressors of the wnt pathway. Briefly, wnt-inducible embryos were harvested and heat shocked for twenty minutes at 38° C. Genotypes were sorted by GFP expression, and the AGM HSCs analyzed by runx1/cmyb expression in situ. […] This is the first evidence in any organism that wnt signaling is required for AGM HSC formation.\nAdditionally, indomethacin and dmPGE2 was used to investigate the interaction of the wnt and prostaglandin pathways during HSC development and in marrow recovery following injury. FIG. 13 reflects the potential points of interaction of the PG and wnt pathways. […] Furthermore, dmPGE2 can rescue the inhibitory effects of dkk activation on AGM HSC formation at 36 hpf, as shown by in situ hybridization for runx1/cmyb."}, "AGM HSCs": {"system": "AGM HSCs", "assay": "Rescue of AGM HSCs in the mindbomb mutant", "assay_type": "in vivo, zebrafish", "settings": "preliminary studies", "description": "The mutant mindbomb lacks an E3 ubiquitin ligase for delta, the ligand of notch receptors. As such, mindbomb mutants completely lack notch signaling, and fail to make any hematopoietic stem cells in the AGM. Itoh et al., 4 Devel. Cell 67-82 (2003). Overexpression of runx1 rescues the number of c−myb positive cells in the AGM in mindbomb. This implies that runx is an important target of notch. […] This may be due to a defect in the ability of the cells to respond to prostaglandin E2; notch signaling is likely to be required earlier in the development of the AGM region than prostaglandin E2. Dose response curves with prostaglandin E2 in the mindbomb mutant may shed light on this. Conversely, Notch ICD embryos that have increased stem cell number by 36 hpf may be incubated with Cox inhibitors to see if prostaglandin signaling has a role in mediating AGM HSC upregulation. Other hematopoietic mutants may be studied similarly."}, "[3]": {"system": "kidney marrow (KM) hematopoietic lineages", "assay": "Kidney marrow irradiation recovery assay in adult zebrafish", "settings": "50 μM vs DMSO, sublethally irradiated adult zebrafish", "source_text": "Wild-type fish were sublethally irradiated, exposed to dmPGE2, and evaluated for kinetics of KM recovery by FACS 11 (FIG. 4A).\nAdult zebrafish were exposed to 23 Gy of γ-irradiation. […] Whole KM isolated on days 0, 2, 4, 7, 10, 14 was subjected to FSC/SSC FACS analysis to identify hematopoietic lineages (n=5/treatment×3 replicates)."}}, "note": "“Also recorded” adds a separate entry of the source.", "data": [{"smiles": "CCCCC(C)(C)[C@H](O)/C=C/[C@H]1[C@H](O)CC(=O)[C@@H]1C/C=C\\CCCC(=O)O", "note": "[dmPGE2, 16,16-dimethyl-PGE2]", "values": [{"measurement": "splenic weight and CFU-S12 in recipients of treated KSL cells", "setting": "[1]; KSL BM cells, 100 or 300 cells per recipient", "result": "significantly increased"}, {"measurement": "CFU-S12 Colony Number", "setting": "[1]; Kit+Sca+Lin−, 100 cells transplanted, EtOH 3.0 (1.4)", "result": "6.2 (1.2)"}, {"measurement": "CFU-S12 Colony Number", "setting": "[1]; Kit+Sca+Lin−, 300 cells transplanted, EtOH 5.0 (1.1)", "result": "11.0 (1.7)"}, {"measurement": "CFU-S8 colonies", "setting": "[1]; WBM ex vivo 1 μM/10^6 cells", "result": "enhanced"}, {"measurement": "number of CFU-S12, increase", "setting": "[1]; WBM ex vivo 1 μM/10^6 cells, 6×10^4 cells transplanted", "result": "three-fold"}, {"measurement": "CFU-S12 Colony Number", "setting": "[1]; Whole Marrow, 6000 cells transplanted, 1 μM/10^6 cells ex vivo, day twelve, EtOH 5.8 (2.6)", "result": "15.2 (2.2)"}, {"measurement": "Mean % CD45.1 chimerism (±SD)", "setting": "repopulating HSCs; 6 wk, test cell dose 15000, competitor 200000", "result": "16.9 ± 19.5", "unit": "%"}, {"measurement": "Animals with >5% CD45.1", "setting": "repopulating HSCs; 6 wk, test cell dose 15000, competitor 200000, 10 analyzed", "result": 7}, {"measurement": "Mean % CD45.1 chimerism (±SD)", "setting": "repopulating HSCs; 6 wk, test cell dose 50000, competitor 200000", "result": "22.7 ± 24.2", "unit": "%"}, {"measurement": "Animals with >5% CD45.1", "setting": "repopulating HSCs; 6 wk, test cell dose 50000, competitor 200000, 10 analyzed", "result": 8}, {"measurement": "Mean % CD45.1 chimerism (±SD)", "setting": "repopulating HSCs; 6 wk, test cell dose 200000, competitor 200000", "result": "41.9 ± 17.2", "unit": "%"}, {"measurement": "Animals with >5% CD45.1", "setting": "repopulating HSCs; 6 wk, test cell dose 200000, competitor 200000, 10 analyzed", "result": 10}, {"measurement": "Mean % CD45.1 chimerism (±SD)", "setting": "repopulating HSCs; 6 wk, test cell dose 2000000, competitor 200000", "result": "85.1 ± 3.1", "unit": "%"}, {"measurement": "Animals with >5% CD45.1", "setting": "repopulating HSCs; 6 wk, test cell dose 2000000, competitor 200000, 10 analyzed", "result": 10}, {"measurement": "Mean % CD45.1 chimerism (±SD)", "setting": "repopulating HSCs; 12 wk, test cell dose 15000, competitor 200000", "result": "15.1 ± 22.2", "unit": "%"}, {"measurement": "Animals with >5% CD45.1", "setting": "repopulating HSCs; 12 wk, test cell dose 15000, competitor 200000, 10 analyzed", "result": 5}, {"measurement": "Mean % CD45.1 chimerism (±SD)", "setting": "repopulating HSCs; 12 wk, test cell dose 50000, competitor 200000", "result": "18.1 ± 22.2", "unit": "%"}, {"measurement": "Animals with >5% CD45.1", "setting": "repopulating HSCs; 12 wk, test cell dose 50000, competitor 200000, 10 analyzed", "result": 8}, {"measurement": "Mean % CD45.1 chimerism (±SD)", "setting": "repopulating HSCs; 12 wk, test cell dose 200000, competitor 200000", "result": "40.8 ± 28.7", "unit": "%"}, {"measurement": "Animals with >5% CD45.1", "setting": "repopulating HSCs; 12 wk, test cell dose 200000, competitor 200000, 10 analyzed", "result": 10}, {"measurement": "Mean % CD45.1 chimerism (±SD)", "setting": "repopulating HSCs; 12 wk, test cell dose 2000000, competitor 200000", "result": "87.8 ± 4.0", "unit": "%"}, {"measurement": "Animals with >5% CD45.1", "setting": "repopulating HSCs; 12 wk, test cell dose 2000000, competitor 200000, 10 analyzed", "result": 10}, {"measurement": "Mean % CD45.1 chimerism (±SD)", "setting": "repopulating HSCs; 24 wk, test cell dose 15000, competitor 200000", "result": "10.2 ± 10.3", "unit": "%"}, {"measurement": "Animals with >5% CD45.1", "setting": "repopulating HSCs; 24 wk, test cell dose 15000, competitor 200000, 9 analyzed", "result": 4}, {"measurement": "Mean % CD45.1 chimerism (±SD)", "setting": "repopulating HSCs; 24 wk, test cell dose 50000, competitor 200000", "result": "14.3 ± 16.6", "unit": "%"}, {"measurement": "Animals with >5% CD45.1", "setting": "repopulating HSCs; 24 wk, test cell dose 50000, competitor 200000, 10 analyzed", "result": 7}, {"measurement": "Mean % CD45.1 chimerism (±SD)", "setting": "repopulating HSCs; 24 wk, test cell dose 200000, competitor 200000", "result": "39.1 ± 31.0", "unit": "%"}, {"measurement": "Animals with >5% CD45.1", "setting": "repopulating HSCs; 24 wk, test cell dose 200000, competitor 200000, 10 analyzed", "result": 10}, {"measurement": "Mean % CD45.1 chimerism (±SD)", "setting": "repopulating HSCs; 24 wk, test cell dose 2000000, competitor 200000", "result": "90.7 ± 4.0", "unit": "%"}, {"measurement": "Animals with >5% CD45.1", "setting": "repopulating HSCs; 24 wk, test cell dose 2000000, competitor 200000, 10 analyzed", "result": 10}, {"measurement": "calculated frequency of engrafting cells per 10^6 WBM cells, enhancement vs control", "setting": "repopulating HSCs; six weeks post-transplant, Poisson statistics", "result": 3.3, "unit": "fold"}, {"measurement": "frequency of short-term repopulating HSCs, higher vs control", "setting": "repopulating HSCs; twelve weeks post-transplant, Poisson statistics", "result": 4, "unit": "fold"}, {"measurement": "lineage character of reconstitution in recipients", "setting": "repopulating HSCs; twelve- and twenty-four-week analyses", "result": "multilineage"}, {"measurement": "frequency of long-term repopulating HSCs, enhancement vs control", "setting": "repopulating HSCs; twenty-four weeks post-transplant, Poisson statistics", "result": 2.3, "unit": "fold"}, {"measurement": "contribution of treated HSCs to hematopoiesis over time", "setting": "repopulating HSCs; up to twenty-four weeks", "result": "No decline"}, {"measurement": "BM recovery following 5FU treatment", "setting": "[2]; administration after 5FU", "result": "significantly enhanced BM recovery"}, {"measurement": "peripheral blood (day 14) and bone marrow (day 16) WBC counts after 5-FU injury", "setting": "[2]; in vivo exposure, IP, 1 mg/kg", "result": "enhanced WBC counts"}, {"measurement": "rescue of inhibited AGM HSC formation under wnt repression (dkk activation)", "setting": "runx1/cmyb+ AGM HSCs; 36 hpf, runx1/cmyb in situ hybridization", "result": "partially rescued; also recorded: can rescue"}, {"measurement": "rescue of HSC formation in embryos over-expressing dnTCF", "setting": "runx1/cmyb+ AGM HSCs; preliminary results", "result": "not sufficient"}, {"measurement": "rescue of the mindbomb mutant", "setting": "AGM HSCs", "result": "failed to demonstrate any type of rescue"}, {"measurement": "rate of hematopoietic reconstitution of the KM", "setting": "[3]", "result": "significantly enhanced"}]}]}
